Assay results taken from patent US20190015400A1, “Antifungal Compositions” (priority 2017, published 2019).

Test system: C. glabrata ATCC 2001 (strain H)
Assay: Time-kill assay, POS and EBA
Type: cell-based, Candida glabrata
Settings: drug alone (POS at concentration used in MICcombination; NYT, AMB at 1×MIC), inoculum 10^5
Description: The protocol for time-kill assays followed methods previously described with minor modifications. Yeast cultures were grown overnight in YEPD medium at 35° C. with shaking at 200 rpm. A working stock of fungal cells was made by diluting cultures in 1640 medium to an OD600 of 0.125 (˜1×10^6 CFU/mL). From the working stock, 100 μL of cells was added to 4.9 mL of RPMI 1640 medium in sterile culture tubes, making the starting fungal cell concentration ˜1×10^5 CFU/mL. Drug was then added to the fungal cells. […] Treated fungal cultures were incubated in the culture tubes at 35° C. with 200 rpm shaking for 24 h. Samples were aliquoted from the different treatments at regular time points (0, 3, 6, 9, 12, and 24 h) and plated in duplicate. For each time point, cultures were vortexed, 100 μL of culture was aspirated, and 10-fold serial dilutions were made in sterile ddH2O. From the appropriate dilutions, 100 μL of fungal suspension was spread on PDA plates and incubated at 35° C. for 48 h before colony counts were determined. At 24 h, 50 μL of 1 mM resazurin in phosphate buffered saline (PBS) was added to the treatments and incubated at 35° C. with 200 rpm shaking for 2 h in the dark for visual inspection. […] Experiments were performed in duplicate.

SMILES: CC[C@@H]([C@H](C)O)n1ncn(-c2ccc(N3CCN(c4ccc(OC[C@@H]5CO[C@@](Cn6cncn6)(c6ccc(F)cc6F)C5)cc4)CC3)cc2)c1=O [POS, posaconazole]
- CFU/mL at 24 h: 10^8 CFU/mL
